These results are taken from US8173133B2, “Acyl pseudodipeptides which carry a functionalized auxiliary arm” (OM Pharma, priority 1999, dated 2012).

In brackets after ≈: the same amount, converted by molar mass.

For test [1], the system named is CD83, CD86 surface markers of predendritic cells (DC-6). The test is described as follows: dendritic cell differentiation test: CD83, CD86 surface marker expression. To be noted: 10 μg/ml; for CD86 % CD: products redissolved in pyrogen-free water, % of dendritic cells; for CD86 Fluorescence: mean fluorescence value. In kind it is cell-based, human. The method, then: (§1) The ability of products of the invention to induce maturation of predendritic cells into dendritic cells was assessed. The following parameters were measured: FITC-Dextran conjugate take-up and expression of CD83, CD86 surface markers.
(§2) Mononucleated cells of peripheral blood are isolated from buffy coats of healthy donors. Purified monocytes by adherence selection are resuspended in RPMI-1640 medium containing 10% of foetal calf serum (FCS), GM-CSF and IL-4 (10 ng/ml) at a density of 1×10^6 cells/ml. Cells are divided into Petri Dishes (10×10^6 cells per dish) and cultured for 6 days with a change to fresh medium after 3 days. Cells thus obtained are called predendritic cells (DC-6). Maturation of predendritic cells into mature dendritic cells is achieved by incubating cells with diluted solutions of the products or LPS (positive control) for 3 more days (see product section below). At day 9 (DC-9), cells are harvested and analyzed for different indicators of dendritic cell maturation: assessment of CD83, CD86 surface marker expression as well as of their ability to take up FITC-Dextran conjugate. All these parameters are analyzed by an EPICS-XL-MCL model FACS (Coulter Immunology, Hialeah, […]).
(§3) Expression of surface markers is given as % of mean fluorescence of LPS-activated cells (positive control); FITC-Dextran conjugate take-up rate is calculated based on take-up of cells maintained in basic medium and is expressed in %.
(§4) Solutions are incubated at 37° C. for 20 minutes, subjected to vigorous stirring during 3 minutes and then diluted to 100 μg/ml in RPMI-1640 culture medium and used in diluted state at concentrations ranging from 10 μg/ml to 0.03 μg/ml. Reference Product: E. coli lipopolysaccharide (LPS, DIFCO, Detroit, Mich., U.S.A.), as a 5 mg/ml stock solution in PBS. An intermediate 100 μg/ml solution is prepared in RPMI 1640 culture medium. Concentrations of dilute solutions being tested range from 1 μg/ml to 0.03 μg/ml.
(§5) In another series of experiments, all acyl dipeptide-like compounds were freeze-dried and directly redissolved into pyrogen-free water. Different products as well as LPS control are tested at a concentration of 10 μg/ml. Results are given as % of dendritic cells and mean fluorescence value for dextran phagocytosis or CD86 surface marker expression.

A further test has as its system murine macrophage cells. Briefly: nitric oxide production by murine macrophage cells (Griess). The note with it: for Max concentration: concentration at maximum amplitude; for EC50 conc: concentration corresponding to 50% of maximum amplitude; for Min concentration: lowest concentration inducing a significant response. In kind it is cell-based, C57/BL6 mice. The text has this: Six-week old male C57/BL6 mice are killed by CO2 inhalation. The hip, femur, tibia and posterior appendage bones are removed. The bone marrow is extracted from the bone lumen by injecting Dulbecco's Modified Eagle Medium (DH medium) from the end portions which had been excised. The stem cells are washed and resuspended (approximate cell concentration 4000 cells/ml) in DH medium supplemented with 20% equine serum (SH) and 30% L929 cell supernatant. L929 is a murine fibroblast cell line the supernatant fluid of which is rich in growth factor for macrophage cells (M-CSF). The cell suspension is divided into Petri dishes which are incubated for 8 days in an incubator at 37° C. under 8% CO2 and a moisture saturated atmosphere.
After 8 days, the stem cells have differentiated into mature macrophage cells. The macrophage cells are scraped off by rapid cooling, washed and resuspended in DH medium supplemented with 5% foetal calf serum (FCS), amino acids and antibiotics. The cell density is adjusted to 700 000 cells/ml.
Products previously dissolved in DH medium supplemented with 5% FCS, amino acids and antibiotics are serially diluted directly in microtiter plates. The products are tested in triplicates and each microtiter plate comprises a negative control containing plain medium. The final volume in each well is 100 μl.
100 μl of cell suspension are added to diluted solutions of such products and the cells are incubated for 22 hours in an incubator at 37° C., under 8% CO2 and a moisture saturated atmosphere. At the end of the incubation period with the products, 100 μl of supernatant are withdrawn and the nitrite concentration is determined by running a Griess reaction.
100 μl of Griess reagent (5 mg/ml of sulfanilamide+0.5 mg/ml of N-(1-naphtylethylene diamine hydrochloride)) in 2.5% aq. phosphoric acid, are added to each well. The microtiter plates are read with a spectrophotometer at 562 nm wavelength against a reference sample at 690 nm. The nitrite concentration is proportional to nitric oxide content being formed. The nitrite content is determined based on a standard curve.
The results are given as mean value±standard deviation and plotted as a dose versus response curve.
From this dose versus response curve, 3 curve variables are computed:
Max: maximum curve amplitude and corresponding concentration
EC50: concentration corresponding to 50% of maximum amplitude
Min: lowest concentration inducing a significant proliferation corresponding to the blank±3× standard deviation value
Concentration values corresponding to EC50 and Min are determined from line segments joining different points on the curve.
If the curve has no plateau phase but an ascending configuration for the highest concentration being tested, a “>” sign is shown before “Max” and “EC50” values.
In general terms: Griess reagent forms a coloured azo dye with nitrite.

Test [2] has as its system predendritic cells (DC-6). Briefly: dendritic cell differentiation test: FITC-Dextran take-up. The test is classed as cell-based, human. To be noted: 10 μg/ml; for Dextran % CD: products redissolved in pyrogen-free water, % of dendritic cells; for Dextran Fluorescence: mean fluorescence value. The method, then: as §1, §2, §3, §4, §5
Immature dendritic cells (DC-6) resulting from monocyte differentiation, through the joint action of GM-CSF and IL-4, are able to incorporate FITC-Dextran conjugate. During the maturation process, cells lose their ability to incorporate the FITC-Dextran conjugate. Assays are conducted upon reaching the DC-9 differentiation stage.

Turning to `CCCCCCCCCCCC(=O)O[C@H](CCCCCCCCCCC)CC(=O)N[C@H](CC(=O)O)C(=O)NCCC[C@H](COC(=O)CCCCCNC(=O)CCC(=O)OC[C@@H]1C=C[C@H](n2cc(C)c(=O)[nH]c2=O)O1)NC(=O)C[C@H](O)CCCCCCCCCCC` [OM-197-MC-AC-Succ-d4T], in test [1], the “CD86 % CD” value stood at 25.9% and the “CD86 Fluorescence” value came to 2.4. For the same compound, in the test on murine macrophage cells, the Max concentration is 12.5 µg/mL, the EC50 conc worked out at 1.15 µg/mL (≈ 0.893 µM) and the Min concentration is 0.56 µg/mL. In test [2], the “Dextran % CD” value is 11.6% and the “Dextran Fluorescence” value was determined as 0.5.

Take `CCCCCCCCCCCC(=O)O[C@H](CCCCCCCCCCC)CC(=O)N[C@H](CC(=O)N[C@@H](CCCCN)C(=O)O)C(=O)NCCC[C@H](COC(=O)CCCCCN)NC(=O)C[C@H](O)CCCCCCCCCCC` [OM-197-Lys-AC]: in test [1], the “CD86 % CD” value came to 93.5% and the “CD86 Fluorescence” value is given as 6.9. Also, in the test with murine macrophage cells, the Max concentration is over 50 µg/mL, the EC50 conc is over 11.06 µg/mL and the Min concentration was determined as 1.46 µg/mL. Further, in test [2], the “Dextran % CD” value was 92.2% and the “Dextran Fluorescence” value worked out at 6.8.

As to `CCCCCCCCCCCC(=O)O[C@H](CCCCCCCCCCC)CC(=O)N[C@H](CC(=O)O)C(=O)NCCC[C@H](COC(=O)CCCCCO)NC(=O)C[C@H](O)CCCCCCCCCCC` [OM-197-MC-FV7, N—[(R)-3-dodecanoyloxytetradecanoylamino]-D-aspartic acid, α-N-{(4R)-5-hydroxy-4-[(R)-3-hydroxytetradecanoylamino]pentyl}amide 5-O-(6-hydroxyhexanoate)], in the test with murine macrophage cells, the Max concentration is over 25.6 µg/mL, the EC50 conc was over 3.70 µg/mL and the Min concentration was 0.36 µg/mL.

In the test on murine macrophage cells, `CCCCCCCCCCC[C@@H](O)CC(=O)N[C@H](CCCNC(=O)[C@@H](CC(=O)O)NC(C)=O)COC(=O)CCCCCN` [OM-197-N′C2-MC-AC, N-acetyl-D-aspartic acid, α-N-{(4R)-5-(6-aminohexanoyloxy)-4-[(R)-3-hydroxytetradecanoylamino]-pentyl}amide] gave a Max concentration of 200 µg/mL.

Consider `CCCCCCCCCCCC(=O)O[C@H](CCCCCCCCCCC)CC(=O)N[C@H](CC(=O)N[C@@H](CC(=O)O)C(=O)O)C(=O)NCCC[C@H](CO)NC(=O)C[C@H](O)CCCCCCCCCCC` [OM-197-Asp, N—[(R)-3-dodecanoyloxytetradecanoyl]-D-aspartic acid, α-N-{(4R)-5-hydroxy-4-[(R)-3-hydroxytetradecanoylamino]-pentyl}Amide β-N-[(1S)-1,2-Dicarboxyethyl]Amide], for which, in test [1], the “CD86 % CD” value is recorded as 29.0% and the “CD86 Fluorescence” value was 2.6. In the test with murine macrophage cells, this compound showed a Max concentration of 51 µg/mL, an EC50 conc of 0.95 µg/mL (≈ 0.966 µM) and a Min concentration of 0.086 µg/mL. In test [2], the “Dextran % CD” value was found to be 26.4% and the “Dextran Fluorescence” value is 2.4.

In the test with murine macrophage cells, `CCCCCCCCCCCC(=O)O[C@H](CCCCCCCCCCC)CC(=O)NC(CCOP(=O)(O)O)C(=O)NCCCC(COC(=O)CCCCCO)NC(=O)C[C@H](O)CCCCCCCCCCC` (stereo partly drawn) [OM-197-FV8, 3-[(R)-3-dodecanoyloxytetradecanoylamino]-4-oxo-5-aza-9-[(R)-3-hydroxytetradecanoylamino]-decan-1,10-diol 1-dihydrogenphosphate 10-(6-hydroxyhexanoate)] had a Max concentration of 51 µg/mL, an EC50 conc of 7.89 µg/mL (≈ 7.53 µM) and a Min concentration of 1.45 µg/mL.

As to `CCCCCCCCCCCC(=O)O[C@H](CCCCCCCCCCC)CC(=O)N[C@H](CC(=O)O)C(=O)NCCC[C@H](COC(=O)CCC(=O)O)NC(=O)C[C@H](O)CCCCCCCCCCC` [OM-197-MC-Succ], in test [1], the “CD86 % CD” value came to 34.9% and the “CD86 Fluorescence” value is 3.0. In the test on murine macrophage cells, this compound showed a Max concentration of 16 µg/mL, an EC50 conc of 0.89 µg/mL (≈ 0.919 µM) and a Min concentration of 0.22 µg/mL. Also, in test [2], the “Dextran % CD” value was 35.5% and the “Dextran Fluorescence” value came out at 3.0.

Take `CCCCCCCCCCC[C@@H](O)CC(=O)N[C@H](CCCNC(=O)[C@@H](CC(=O)O)NC(=O)C(CCCCCC)OC(=O)CCCCCCCCC)COC(=O)CCCCCN` (stereo partly drawn) [OM-197-N′(C10-20C8)-MC-AC, N-(2-decanoyloxyoctanoyl)-D-aspartic acid, α-N-{(4R)-5-(6-aminohexanoyloxy)-4-[(R)-3-hydroxytetradecanoylamino]-pentyl}amide]: in the test on murine macrophage cells, the “nitric oxide production” value is “minor production”, the Max concentration is over 100 µg/mL, the EC50 conc worked out at 61.05 µg/mL (≈ 70.2 µM) and the Min concentration is 54.3 µg/mL.

As for `CCCCCCCCCCCC(=O)O[C@H](CCCCCCCCCCC)CC(=O)N[C@@H](CCOP(=O)(O)O)C(=O)NCCC[C@H](COC(=O)CCCCCO)NC(=O)C[C@H](O)CCCCCCCCCCC` [OM-197-MP-AC (S, R), (3S,9R)-3-[(R)-3-dodecanoyloxytetradecanoylamino]-4-oxo-5-aza-9-[(R)-3-hydroxytetradecanoylamino]-1,10-diol 1-dihydrogenphosphate 10-(6-hydroxyhexanoate)], in the test on murine macrophage cells, the Max concentration was 40 µg/mL, the EC50 conc turned out to be 3.28 µg/mL (≈ 3.13 µM) and the Min concentration stood at 0.59 µg/mL.

For the compound `CCCCCCCCCCCC(=O)O[C@H](CCCCCCCCCCC)CC(=O)N[C@H](CC(=O)O)C(=O)NCCC[C@H](COC(=O)CCCCCNC(=O)CCC(=O)O)NC(=O)C[C@H](O)CCCCCCCCCCC` [OM-197-MC-AC-Succ, N—[(R)-3-dodecanoyloxytetradecanoyl]-D-aspartic acid, α-N-{(4R)-5-(6-succinylamidohexanoxyloxy)-4[(R)-3-hydroxy-tetradecanoylamino]pentyl}amide], in the test with murine macrophage cells, the Max concentration was over 16 µg/mL, the EC50 conc is 0.72 µg/mL (≈ 0.666 µM) and the Min concentration is 0.28 µg/mL.

In the test with murine macrophage cells, `CCCCCCCCCCCC(=O)O[C@H](CCCCCCCCCCC)CC(=O)N[C@H](CC(=O)O)C(=O)NCCC[C@H](COP(=O)(O)O)NC(=O)C[C@H](O)CCCCCCCCCCC` [OM-197-MC-MP, N—[(R)-3-dodecanoyloxytetradecanoyl]-D-aspartic acid, α-N-{(4R)-5-dihydroxyphosphoryloxy-4-[(R)-3-hydroxytetradecanoyl-amino]pentyl}amide] had a Max concentration of 51 µg/mL, an EC50 conc of 1.18 µg/mL (≈ 1.24 µM) and a Min concentration of 0.11 µg/mL.
